Results published in US20260078120A1, “SUBSTITUTED PYRIDOPYRIMIDINONES” (MIRATI THERAPEUTICS, INC., priority 2022, published 2026).

Assays:
Assay type in all cases: cell-based
[1] = system: T47D (PI3Kα H1047R mutant) cells; assay: Inhibition of pAKT formation, alphaLISA SureFire Ultra AKT 1/2/3 (pS473), T47D cells; settings: Homo sapiens, T47D, T47D (PI3Kα H1047R mutant) cells; inhibition of pAKT (pS473) formation; approximately one hour or 24 hours treatment; read-out: T47D pAKT (H1047R mutant) IC50
Outline: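 AKT Ser473 phosphorylation was quantified by alphaLISA SureFire Ultra after roughly 1 h or 24 h compound exposure at 37 °C. Cells were T47D (12,000/well in HBSS), treated with a 10-point 1:4 series starting at 10.4 μM. Percent of control used alpelisib background and DMSO reference, and IC50 came from four-parameter logistic fitting.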

[2] = system: MKN1 (PI3Kα E545K mutant) cells; assay: Inhibition of pAKT formation, alphaLISA SureFire Ultra AKT 1/2/3 (pS473), MKN1 cells; settings: Homo sapiens, MKN-1; MKN1 (PI3Kα E545K mutant) cells; inhibition of pAKT (pS473) formation; approximately one hour or 24 hours treatment; read-out: MKN1 (E545K) pAKT IC50
Protocol: (§1) The ability of a compound of Formula (I) to inhibit the formation of pAKT was measured using alphaLISA Surefire Ultra AKT 1/2/3 (pS473) Assay Kit (#ALSU-PAKT-B50K) was obtained from Perkin Elmer (Waltham, MA).
(§2) To prepare assay plates for pAKT alphaLISA assays, cells were trypsinized, resuspended in fresh media, and viable cells were counted utilizing trypan blue exclusion. Prior to seeding, cells were washed with PBS and resuspended in HBSS (Gibco, #14025092). T47D (12,000/w), SKBR3(12,000/w), or MKN1(24,000/w) cells were seeded at 12 μl per well in a solid white flat bottom 384 cell culture plate (Perkin Elmer #6007680).
(§3) Immediately after seeding, cells were dosed using an Echo Liquid Handler (Beckman Coulter) with compounds at a […] starting concentration and serially diluted (1:4) for a total of 10 concentrations. […] Cells were incubated with the compounds (solubilized in DMSO) for approximately one hour or 24 hours at 37° C. After one hour (or 24 hours) of treatment, cells were lysed with 3 μl of the 5× lysis buffer (provided and incubated at room temperature for 15 min on a microtiter plate shaker). Once cells were sufficiently lysed, 7.5 μl of the acceptor bead mix (made using the manufacturers recommended dilutions) was added to each well and left on the microtiter plate shaker for 1 min prior to incubating plates at room temperature for one hour, in the absence of light. After one hour of incubation with the acceptor bead mix, 7.5 μl of the donor bead mix (made using the manufacturers recommended dilutions) was added to each well and left on the microtiter plate shaker for 1 min prior to incubating plates at room temperature overnight in the absence of light. Plates were then imaged the following day using a CLARIOstar microplate reader (BMG Labtech, Germany).
(§4) Percent of control values were calculated by subtracting the average signal from the positive control (alpelisib) treated wells from all treated wells (including DMSO control wells) and then divided by the average signal from the vehicle DMSO treated control wells. Percent of vehicle control values were plotted as log (inhibitor) vs. response-Variable slope (four parameters) for curve fitting and IC50 values were determined using XLfit.
(§5) Key: N.D. =not determined

[3] = system: SKBR3 (PI3Kα wild type) cells; assay: Inhibition of pAKT formation, alphaLISA SureFire Ultra AKT 1/2/3 (pS473), SKBR3 cells; settings: Homo sapiens, SK-BR-3; Inhibition of pAKT in SKBR3 (PI3Kα wild type) cells; read-out: SKBR3 (WT) pAKT IC50 (nM) (H1047R mutant) IC50
Protocol: as §1, §2, §3, §4, §5

[4] = system: T47D (PI3Kα H1047R mutant) cells; assay: CellTiter-Glo 2.0 luminescent cell viability assay, 72 hours, T47D cells; settings: Homo sapiens, T47D, 72 h, T47D (PI3Kα H1047R mutant) cells, CellTiter-Glo, approximately 72 hours; read-out: T47D (H1047R mutant) Viability IC50
Outline: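 Viability was measured by CellTiter-Glo 2.0 luminescence after approximately 72 h of compound exposure at 37° C. Plating was 1000 cells per well the day before dosing, with ten 1:4 dilutions from a 10 µM top concentration. Values as percent of vehicle were fitted by variable-slope log(inhibitor) regression to give IC50.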

[5] = system: MKN1 (PI3Kα E545K mutant) cells; assay: CellTiter-Glo 2.0 luminescent cell viability assay, 72 hours, MKN1 cells; settings: Homo sapiens, MKN-1; MKN1 (PI3Kα E545K mutant) cells, CellTiter-Glo, approximately 72 hours; read-out: MKN1 (E545K) Viability IC50
Protocol: This Example illustrates that exemplary compounds of the present invention decrease the viability of cells.
The ability of a compound of Formula (I) to decrease the viability of cells was measured using CellTiter-Glo 2.0 (CTG) Luminescent Cell Viability Assay (#G9241) obtained from Promega (Madison, WI).
To prepare assay plates for viability assays, cells were trypsinized, resuspended in fresh media, and viable cells were counted utilizing trypan blue exclusion. T47D, SKBR3, or MKN1 cells were seeded at 1000 cells in 30 μl per well in a solid white flat bottom 384 cell culture plate (Perkin Elmer #6007680) and incubated at 37° C. overnight.
Assay day 1, cells were dosed using an Echo Liquid Handler (Beckman Coulter) with compounds at a 10 um starting concentration and serially diluted (1:4) for a total of 10 concentrations. Cells were incubated for approximately 72 hours with the compounds (solubilized in DMSO) at 37° C. After 72 hours of treatment, cell plates were equilibrated to room temperature before adding 15 μl of CTG to each well, plates were then covered in aluminum foil to protect from light, incubated at room temperature for 30 minutes on a microtiter plate shaker, and luminescence readings were collected using a CLARIOstar microplate reader (BMG Labtech, Germany). Percent of vehicle control values were plotted as log (inhibitor) vs. response-Variable slope (four parameters) for curve fitting and IC50 values were determined using XLfit.

[6] = system: SKBR3 (PI3Kα wild type) cells; assay: CellTiter-Glo 2.0 luminescent cell viability assay, 72 hours, SKBR3 cells; settings: Homo sapiens, SK-BR-3, 72 h, SKBR3 (PI3Kα wild type) cells, CellTiter-Glo, approximately 72 hours; read-out: SKBR3 (WT) Viability IC50
Outline: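 Viability measured via CTG luminescence following roughly 72 hours of compound exposure at 37° C. Dosing used a 10 um starting concentration diluted 1:4 over 10 points; percent-of-vehicle data fitted with a variable-slope four-parameter model for IC50.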

Row | SMILES | IC50 [1] [µM] | IC50 [2] [µM] | IC50 [3] [nM] | IC50 [4] [µM] | IC50 [5] [µM] | IC50 [6] [µM]
1 | Cc1cc(C(C)Nc2ccccc2C(=O)O)c2nc(C3CC3)cc(=O)n2c1 (stereo not drawn) [6-2, 2-((1-(2-cyclopropyl-7-methyl-4-oxo-4H-pyrido[1,2-a]pyrimidin-9-yl)ethyl)amino)benzoic acid] | 0.0932 | > 10 | > 10000 | > 10 | > 10 | > 10
2 | CC(Nc1ccccc1C(=O)O)c1cccn2c(=O)cc(N3Cc4ccccc4C3)nc12 (stereo not drawn) [9-4, 2-((1-(2-(isoindolin-2-yl)-4-oxo-4H-pyrido[1,2-a]pyrimidin-9-yl)ethyl)amino)benzoic acid] | 0.0259 | > 10 | > 10000 | 9.97 | > 10 | > 10
3 | Cc1cc(C(C)Nc2ccccc2)c2nc(N3CCCCC3)cc(=O)n2c1 (stereo not drawn) [Example 1, 7-methyl-9-(1-(phenylamino)ethyl)-2-(piperidin-1-yl)-4H-pyrido[1,2-a]pyrimidin-4-one] | > 10 | > 10 | > 10000 | > 10 | > 10 | > 10
4 | COc1cccc(NC(C)c2cc(C)cn3c(=O)cc(N4CCCCC4)nc23)c1C(=O)O (stereo not drawn) [Example 3-3, 2-methoxy-6-((1-(7-methyl-4-oxo-2-(piperidin-1-yl)-4H-pyrido[1,2-a]pyrimidin-9-yl)ethyl)amino)benzoic acid] | 2.73 | > 10 | > 10000 | > 10 | > 10 | > 10
5 | COc1ccc(NC(C)c2cc(C)cn3c(=O)cc(N4CCCCC4)nc23)c(C(=O)O)c1 (stereo not drawn) [Example 3-5, 5-methoxy-2-((1-(7-methyl-4-oxo-2-(piperidin-1-yl)-4H-pyrido[1,2-a]pyrimidin-9-yl)ethyl)amino)benzoic acid] | 1.8 | > 10 | > 10000 | > 10 | > 10 | > 10
6 | Cc1cc(C(C)Nc2ccc(O)cc2C(=O)O)c2nc(N3CCCCC3)cc(=O)n2c1 (stereo not drawn) [Example 3-6, 5-hydroxy-2-((1-(7-methyl-4-oxo-2-(piperidin-1-yl)-4H-pyrido[1,2-a]pyrimidin-9-yl)ethyl)amino)benzoic acid] | > 10 | > 10 | 2670 | > 10 | > 10 | > 10
7 | COc1ccc(C(=O)O)c(NC(C)c2cc(C)cn3c(=O)cc(N4CCCCC4)nc23)c1 (stereo not drawn) [Example 3-7, 4-methoxy-2-((1-(7-methyl-4-oxo-2-(piperidin-1-yl)-4H-pyrido[1,2-a]pyrimidin-9-yl)ethyl)amino)benzoic acid] | > 10 | > 10 | 8030 | > 10 | > 10 | > 10
8 | Cc1cc(C(C)Nc2cc(O)ccc2C(=O)O)c2nc(N3CCCCC3)cc(=O)n2c1 (stereo not drawn) [Example 3-8, 4-hydroxy-2-((1-(7-methyl-4-oxo-2-(piperidin-1-yl)-4H-pyrido[1,2-a]pyrimidin-9-yl)ethyl)amino)benzoic acid] | 3 | > 10 | > 10000 | > 10 | > 10 | > 10
9 | Cc1cc(C(C)Oc2ccccc2C(=O)O)c2nc(N3CCCCC3)cc(=O)n2c1 (stereo not drawn) [Example 3-9, 2-(1-(7-methyl-4-oxo-2-(piperidin-1-yl)-4H-pyrido[1,2-a]pyrimidin-9-yl)ethoxy)benzoic acid] | > 10 | > 10 | 583 | > 10 | > 10 | > 10
10 | Cc1cc(C(C)Nc2ccccc2C#N)c2nc(N3CCCCC3)cc(=O)n2c1 (stereo not drawn) [Example 3-11, 2-((1-(7-methyl-4-oxo-2-(piperidin-1-yl)-4H-pyrido[1,2-a]pyrimidin-9-yl)ethyl)amino)benzonitrile] | > 10 | > 10 | > 10000 | > 10 | > 10 | > 10
11 | COC(=O)c1ccccc1NC(C)c1cc(C)cn2c(=O)cc(N3CCCCC3)nc12 (stereo not drawn) [Example 3-12, methyl 2-((1-(7-methyl-4-oxo-2-(piperidin-1-yl)-4H-pyrido[1,2-a]pyrimidin-9-yl)ethyl)amino)benzoate] | 1.97 | > 10 | 44.3 | 5.76 | > 10 | > 10
12 | Cc1cc(C(C)Nc2ccccc2C(N)=O)c2nc(N3CCCCC3)cc(=O)n2c1 (stereo not drawn) [Example 3-13, 2-((1-(7-methyl-4-oxo-2-(piperidin-1-yl)-4H-pyrido[1,2-a]pyrimidin-9-yl)ethyl)amino)benzamide] | 1.06 | 3.99 | > 10000 | > 10 | > 10 | > 10
13 | CNC(=O)c1ccccc1NC(C)c1cc(C)cn2c(=O)cc(N3CCCCC3)nc12 (stereo not drawn) [Example 3-14, N-methyl-2-((1-(7-methyl-4-oxo-2-(piperidin-1-yl)-4H-pyrido[1,2-a]pyrimidin-9-yl)ethyl)amino)benzamide] | 4.54 | 2.91 | > 10000 | 1.36 | > 10 | > 10
14 | Cc1cc(C(C)Nc2ccccc2C(=O)N(C)C)c2nc(N3CCCCC3)cc(=O)n2c1 (stereo not drawn) [Example 3-15, N,N-dimethyl-2-((1-(7-methyl-4-oxo-2-(piperidin-1-yl)-4H-pyrido[1,2-a]pyrimidin-9-yl)ethyl)amino)benzamide] | > 10 | > 10 | > 10000 | > 10 | > 10 | > 10
15 | Cc1cc(C(C)Nc2ccccc2O)c2nc(N3CCCCC3)cc(=O)n2c1 (stereo not drawn) [Example 3-16, 9-(1-((2-hydroxyphenyl)amino)ethyl)-7-methyl-2-(piperidin-1-yl)-4H-pyrido[1,2-a]pyrimidin-4-one] | > 10 | > 10 | > 10000 | > 10 | > 10 | 9.3
